The text below walks through data of paper PMC4287973, “Tumor cell-specific inhibition of MYC function using small molecule inhibitors of the HUWE1 ubiquitin ligase” (EMBO Molecular Medicine, 2014).

For one data set, the target named is T1, HECT-domain of HUWE1 (Homo sapiens, UniProt Q7Z6Z7).
T1 construct: 30 ng biotinylated His-HUWE1 (C-terminal ∼350 amino acids = HECT-domain); His; biotin (biotinylated)
T1 sequence (Q7Z6Z7 4038-4374 limits assumed): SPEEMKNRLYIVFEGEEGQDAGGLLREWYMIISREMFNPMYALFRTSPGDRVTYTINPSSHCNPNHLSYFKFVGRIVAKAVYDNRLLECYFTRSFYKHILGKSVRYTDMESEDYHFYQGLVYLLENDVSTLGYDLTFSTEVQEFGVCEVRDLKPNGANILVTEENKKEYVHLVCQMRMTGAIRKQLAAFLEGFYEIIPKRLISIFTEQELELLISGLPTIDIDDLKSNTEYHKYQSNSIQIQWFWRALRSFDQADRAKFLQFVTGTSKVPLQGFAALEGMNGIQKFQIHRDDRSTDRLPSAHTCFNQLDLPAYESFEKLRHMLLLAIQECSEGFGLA
The data set can be described thus: HUWE1 auto-ubiquitination assay (DELFIA format). Format: biochemical. The note with it: UBA1, UbcH5b, read-out: IC50 HUWE1 (in vitro auto-ubiquitination). The procedure: To identify potential inhibitors of HUWE1, we configured an in vitro assay of HUWE1 activity for high-throughput screening of small molecules, exploiting the fact that the HECT-domain of HUWE1 auto-ubiquitinates (Pandya et al, [2010]). Briefly, the HECT-domain of HUWE1 was biotin-tagged, attached to streptavidin-coated 96-well plates, and incubated with UBA1, UbcH5b, a ubiquitin-conjugating enzyme that supports HUWE1 activity in vitro (Adhikary et al, [2005]), ATP, and MYC-tagged ubiquitin. Auto-ubiquitination was detected using a europium-labeled MYC antibody and appropriate detection reagents (Fig3A). […] After hit confirmation in repeat experiments, we identified inhibitors of UBA1 or UbcH5b by a thioester assay that measures the covalent binding of UbcH5b to ubiquitin in the presence of UBA1: Compounds active in this assay were eliminated. Furthermore, dose responses were determined in both HUWE1 and NEDD4 auto-ubiquitination assays, and compounds inhibiting NEDD4 auto-ubiquitination were eliminated (Fig3B and unpublished observations). […]
A DELFIA format assay was used to measure the covalent association of ubiquitin with HUWE1 (auto-ubiquitination). […] Europium fluorescence was measured with 50 μl DELFIA enhancement solution (Perkin Elmer) in a Wallac Victor fluorescence plate reader (Perkin Elmer).

The target of another data set is T2, HERC1 (Homo sapiens, UniProt Q15751).
T2 construct: HECT-domains of multiple ligases auto-ubiquitinate in in vitro assays containing both UBA1 and UbcH5b
T2 sequence (Q15751 4501-4848 limits assumed): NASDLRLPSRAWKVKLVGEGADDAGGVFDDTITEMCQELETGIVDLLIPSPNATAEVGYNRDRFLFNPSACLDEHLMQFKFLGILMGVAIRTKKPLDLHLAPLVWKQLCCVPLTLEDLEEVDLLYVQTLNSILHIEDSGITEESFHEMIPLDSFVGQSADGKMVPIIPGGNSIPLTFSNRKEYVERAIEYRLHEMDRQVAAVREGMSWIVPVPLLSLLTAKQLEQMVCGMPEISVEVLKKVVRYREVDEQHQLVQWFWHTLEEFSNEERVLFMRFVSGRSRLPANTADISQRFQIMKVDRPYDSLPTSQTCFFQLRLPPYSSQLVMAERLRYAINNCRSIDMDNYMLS
Description: in vitro HECT-domain auto-ubiquitination assay, HERC1. Type of data set: biochemical.

For the next data set, the target named is T3, NEDD4L (Homo sapiens, UniProt Q96PU5).
T3 construct: HECT-domains of multiple ligases auto-ubiquitinate in in vitro assays containing both UBA1 and UbcH5b
T3 sequence (Q96PU5 640-974 limits assumed): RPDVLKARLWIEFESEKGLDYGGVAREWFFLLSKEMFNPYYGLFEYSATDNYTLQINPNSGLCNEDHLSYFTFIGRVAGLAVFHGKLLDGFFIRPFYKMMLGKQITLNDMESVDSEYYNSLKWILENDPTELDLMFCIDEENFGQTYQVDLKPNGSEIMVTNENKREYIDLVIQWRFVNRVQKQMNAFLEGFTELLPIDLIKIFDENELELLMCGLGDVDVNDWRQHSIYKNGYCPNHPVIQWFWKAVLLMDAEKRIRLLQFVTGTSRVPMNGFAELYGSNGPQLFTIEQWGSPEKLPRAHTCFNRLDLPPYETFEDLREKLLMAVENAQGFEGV
Description: in vitro HECT-domain auto-ubiquitination assay, NEDD4L. Type of data set: biochemical.

Another data set addresses T4, SMURF1 (Homo sapiens, UniProt Q9HCE7).
T4 construct: HECT-domains of multiple ligases auto-ubiquitinate in in vitro assays containing both UBA1 and UbcH5b
Description: in vitro HECT-domain auto-ubiquitination assay, SMURF1. Format: biochemical.

Another data set addresses T5, UBE3A (Homo sapiens, UniProt Q05086).
T5 construct: HECT-domains of multiple ligases auto-ubiquitinate in in vitro assays containing both UBA1 and UbcH5b
T5 sequence (Q05086 518-875 limits assumed): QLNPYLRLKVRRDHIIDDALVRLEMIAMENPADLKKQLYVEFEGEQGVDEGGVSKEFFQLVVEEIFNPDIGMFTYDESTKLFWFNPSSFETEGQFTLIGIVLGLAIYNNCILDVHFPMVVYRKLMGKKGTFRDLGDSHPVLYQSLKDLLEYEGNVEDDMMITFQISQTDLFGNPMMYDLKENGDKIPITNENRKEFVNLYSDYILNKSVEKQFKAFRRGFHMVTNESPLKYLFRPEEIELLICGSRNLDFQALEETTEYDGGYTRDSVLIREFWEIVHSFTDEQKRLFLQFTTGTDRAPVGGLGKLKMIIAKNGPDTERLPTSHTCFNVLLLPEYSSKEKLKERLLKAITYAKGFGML
Description: in vitro HECT-domain auto-ubiquitination assay, UBE3A. Type of data set: biochemical.

Data set [1] has as its system crypt cultures of normal intestinal epithelial cells. The data set can be described thus: Survival and viability of intestinal crypt (organoid) cultures. The following applies: for fraction of individual crypts that died: long-term incubation of primary crypt cultures.
Description: Murine intestinal crypt cultures were established from wild-type mice of a mixed background (50% C57Bl6J, 50% S129) as previously described (Sato et al, [2009]). Briefly, intestines were isolated and flushed with PBS. Villi were removed by scraping and remaining tissue cut and washed with PBS. Crypt extraction was carried out in PBS + 2 mM EDTA for 30 min at 4 °C. Isolated crypts were washed with PBS and plated in growth factor reduced Matrigel (BD Biosciences). Crypts were grown in Advanced DMEM (Invitrogen) supplemented with N2 (Invitrogen), B27 (Invitrogen), EGF (Peprotech), Noggin (Peprotech), and R-spondin (Peprotech). Media were replaced every 2 days and crypts passaged weekly. […] Organoid survival was scored at this point based on their microscopic appearance. Cell viability was also determined using a CellTiter-Blue Cell Viability Assay (Promega) according to the manufacturer's instructions.
end of the experiment, the number of life crypts was counted by visual inspection.

T4 sequence (Q9HCE7 420-757 limits assumed, species assumed): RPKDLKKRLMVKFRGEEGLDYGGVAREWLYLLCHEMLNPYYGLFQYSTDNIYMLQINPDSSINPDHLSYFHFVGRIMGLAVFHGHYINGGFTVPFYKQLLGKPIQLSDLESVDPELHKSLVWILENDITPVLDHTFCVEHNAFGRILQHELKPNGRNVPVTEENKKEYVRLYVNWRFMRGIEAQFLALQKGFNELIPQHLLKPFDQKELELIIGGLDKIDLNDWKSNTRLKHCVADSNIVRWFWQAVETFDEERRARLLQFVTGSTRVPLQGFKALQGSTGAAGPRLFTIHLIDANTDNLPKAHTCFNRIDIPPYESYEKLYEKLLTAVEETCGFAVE

On to `Cc1c(C(=O)Nc2ccc(CN)cc2)ncnc1N1CCC(C#N)(c2ccccc2)CC1` [BI8622], for which the half-maximal inhibitory concentration (IC50) was 3.1 µM on HECT-domain of HUWE1; over 50 µM on HERC1; over 50 µM on NEDD4L; over 50 µM on SMURF1; over 50 µM on UBE3A. Further, the “Ki67 staining of intestinal crypts” value in data set [1] (10 µM, 24 hr) was “Ki67-positive”. In data set [1] (10 µM, 24 hr), the “MTT assay corrected for number of live crypts” value is reported as “no reduction”. The “number of live crypts, % of all crypts” value in data set [1] (10 µM, 24 hr, visual inspection) is reported as 68%. The “fraction of individual crypts that died” value in data set [1] is given as “around 30%”.
Take `NCc1cccc(CNc2ncnc3c(N4CCN(Cc5ccccc5)CC4)ncnc23)c1` [BI8626]: the IC50 at HECT-domain of HUWE1 is 0.9 µM; at HERC1 it was over 50 µM; at NEDD4L, over 50 µM; at SMURF1, over 50 µM; against UBE3A it was over 50 µM. For the same compound, the “fraction of individual crypts that died” value in data set [1] is on record as 60-80%.
